Data as given in US11180657B2, “Polysulfonated fluorescence dyes” (ATTO-TEC GmbH, priority 2017, dated 2021).
Marks after values point to notes of the source that are not given here.

Columns and labels:
[1] = Absorption maximum of the dye; assay type: physicochemical
Text: (§1) Examples of the compounds according to the invention are listed in Tables 2-6, where the structures as well as the absorption and fluorescence maxima are indicated. The spectra of selected compounds are shown FIGS. 5-18.

[2] = Fluorescence maximum of the dye; assay type: physicochemical
Text: as §1

Row | λabs ([1]; solvent water/acetonitrile 1:1) | λfl ([2]; solvent PBS pH 7.4) | λabs ([1]; solvent PBS pH 7.4) | λabs ([1]; solvent ethanol) [nm] | λfl ([2]; solvent ethanol) [nm] | SMILES
1 | 533^c nm | 554^b nm |  |  |  | O=C(O)c1ccccc1-c1c2cc/c(=N/CS(=O)(=O)O)c(S(=O)(=O)O)c-2oc2c(S(=O)(=O)O)c(NCS(=O)(=O)O)ccc12 [Compound 1]
2 | 554^c nm | 584^b nm |  |  |  | CCN(Cc1ccccc1S(=O)(=O)O)c1ccc2c(-c3ccccc3C(=O)O)c3cc/c(=[N+](\CC)Cc4ccccc4S(=O)(=O)O)cc-3oc2c1 [Compound 2]
3 | 550^c nm | 583^b nm |  |  |  | CCN(Cc1ccc(S(=O)(=O)O)cc1S(=O)(=O)O)c1ccc2c(-c3ccccc3C(=O)O)c3cc/c(=[N+](\CC)Cc4ccc(S(=O)(=O)O)cc4S(=O)(=O)O)cc-3oc2c1 [Compound 3]
4 | 536^c nm | 559^b nm |  |  |  | O=C(O)c1ccccc1-c1c2cc/c(=N/Cc3ccc(S(=O)(=O)O)cc3S(=O)(=O)O)cc-2oc2cc(NCc3ccc(S(=O)(=O)O)cc3S(=O)(=O)O)ccc12 [Compound 4]
5 | 560^c nm | 584^b nm |  |  |  | CCN(Cc1ccc(S(=O)(=O)O)cc1S(=O)(=O)O)c1ccc2c(-c3ccccc3C(=O)N(C)CCCC(=O)O)c3cc/c(=[N+](\CC)Cc4ccc(S(=O)(=O)O)cc4S(=O)(=O)O)cc-3oc2c1 [Compound 5]
6 | 534^c nm | 559^b nm |  |  |  | CN(CCCC(=O)ON1C(=O)CCC1=O)C(=O)c1ccccc1-c1c2cc(S(=O)(=O)O)/c(=N/Cc3ccc(S(=O)(=O)O)cc3S(=O)(=O)O)cc-2oc2cc(NCc3ccc(S(=O)(=O)O)cc3S(=O)(=O)O)c(S(=O)(=O)O)cc12 [Compound 7]
7 | 550^c nm | 572^b nm |  |  |  | CN(CCCC(=O)O)C(=O)c1ccccc1-c1c2ccc(=[N+](Cc3ccc(S(=O)(=O)O)cc3S(=O)(=O)O)Cc3ccc(S(=O)(=O)O)cc3S(=O)(=O)O)cc-2oc2cc(N(Cc3ccc(S(=O)(=O)O)cc3S(=O)(=O)O)Cc3ccc(S(=O)(=O)O)cc3S(=O)(=O)O)ccc12 [Compound 9]
8 | 534^c nm | 555^b nm |  |  |  | CN(CCCC(=O)O)C(=O)c1ccccc1-c1c2cc/c(=N/Cc3ccc(S(=O)(=O)O)cc3S(=O)(=O)O)cc-2oc2cc(NCc3ccc(S(=O)(=O)O)cc3S(=O)(=O)O)ccc12 [Compound 13]
9 | 530^c nm | 551^b nm |  |  |  | O=C(O)c1ccccc1-c1c2cc/c(=N/CCc3ccc(S(=O)(=O)O)cc3)cc-2oc2cc(NCCc3ccc(S(=O)(=O)O)cc3)ccc12 [Compound 18]
10 | 538^c nm | 559^b nm |  |  |  | CN(CCCC(=O)O)C(=O)c1ccccc1-c1c2cc/c(=N/CCc3ccc(S(=O)(=O)O)cc3)cc-2oc2cc(NCCc3ccc(S(=O)(=O)O)cc3)ccc12 [Compound 21]
11 | 536^c nm | 558^b nm |  |  |  | CN(CCCC(=O)O)C(=O)c1ccccc1-c1c2cc(S(=O)(=O)O)/c(=N/CCc3ccc(S(=O)(=O)O)cc3)cc-2oc2cc(NCCc3ccc(S(=O)(=O)O)cc3)ccc12 [Compound 22]
12 | 532^c nm | 559^b nm |  |  |  | O=C(O)c1ccccc1-c1c2cc/c(=N/CCc3ccc(S(=O)(=O)O)cc3S(=O)(=O)O)cc-2oc2cc(NCCc3ccc(S(=O)(=O)O)cc3S(=O)(=O)O)ccc12 [Compound 23]
13 | 539^c nm | 561^b nm |  |  |  | CN(CCCC(=O)O)C(=O)c1ccccc1-c1c2cc/c(=N/CCc3ccc(S(=O)(=O)O)cc3S(=O)(=O)O)cc-2oc2cc(NCCc3ccc(S(=O)(=O)O)cc3S(=O)(=O)O)ccc12 [Compound 24]
14 | 567^c nm |  |  |  |  | CN(CCCC(=O)O)C(=O)c1ccccc1C1=c2cc3c(cc2Oc2cc4c(cc21)CCCN4Cc1ccc(S(=O)(=O)O)cc1S(=O)(=O)O)=[N+](Cc1ccc(S(=O)(=O)O)cc1S(=O)(=O)O)CCC3 [Compound 28]
15 | 531^c nm |  |  |  |  | CN(CCCC(=O)O)C(=O)c1ccccc1-c1c2cc/c(=N/Cc3ccc(S(=O)(=O)O)cc3S(=O)(=O)O)c(S(=O)(=O)O)c-2oc2c(S(=O)(=O)O)c(NCc3ccc(S(=O)(=O)O)cc3S(=O)(=O)O)ccc12 [Compound 29]
16 | 536^c nm |  |  |  |  | O=C(O)CN(CCS(=O)(=O)O)C(=O)c1ccccc1-c1c2cc/c(=N/Cc3ccc(S(=O)(=O)O)cc3S(=O)(=O)O)c(S(=O)(=O)O)c-2oc2c(S(=O)(=O)O)c(NCc3ccc(S(=O)(=O)O)cc3S(=O)(=O)O)ccc12 [Compound 30]
17 | 532^c nm |  |  |  |  | CN(CCCC(=O)O)C(=O)c1ccccc1-c1c2cc/c(=N/Cc3ccc(S(=O)(=O)O)cc3S(=O)(=O)O)c(S(=O)(=O)O)c-2oc2c(S(=O)(=O)O)c(NCc3ccc(S(=O)(=O)O)cc3S(=O)(=O)O)ccc12.CS(=O)(=O)O [Compound 31]
18 | 530^c nm |  |  |  |  | CN(CCCC(=O)O)C(=O)c1c(-c2c3cc/c(=N/Cc4ccc(S(=O)(=O)O)cc4S(=O)(=O)O)c(S(=O)(=O)O)c-3oc3c(S(=O)(=O)O)c(NCc4ccc(S(=O)(=O)O)cc4S(=O)(=O)O)ccc23)cc(S(=O)(=O)O)cc1S(=O)(=O)O [Compound 32]
19 | 539^c nm |  |  |  |  | CN(CCCC(=O)O)C(=O)c1cc2ccccc2cc1-c1c2cc/c(=N/Cc3ccc(S(=O)(=O)O)cc3S(=O)(=O)O)c(S(=O)(=O)O)c-2oc2c(S(=O)(=O)O)c(NCc3ccc(S(=O)(=O)O)cc3S(=O)(=O)O)ccc12.CS(=O)(=O)O.CS(=O)(=O)O [Compound 33]
20 |  |  | 530^b nm |  |  | CN(CCCC(=O)O)C(=O)c1ccccc1-c1c2cc/c(=N/Cc3cc(S(=O)(=O)O)c4cc(S(=O)(=O)O)cc(S(=O)(=O)O)c4c3)c(S(=O)(=O)O)c-2oc2c(S(=O)(=O)O)c(NCc3cc(S(=O)(=O)O)c4cc(S(=O)(=O)O)cc(S(=O)(=O)O)c4c3)ccc12 [Compound 34]
21 |  | 677^b nm | 656^b nm |  |  | CC1(C)c2c(cc3c4c2CCCN4CCC3)C(c2c(F)c(F)c(SCC(=O)O)c(F)c2F)=c2cc3c(cc21)=[N+](Cc1ccc(S(=O)(=O)O)cc1S(=O)(=O)O)CCC3 [Compound 36]
22 |  | 661^b nm | 642^b nm |  |  | CN(C)c1ccc2c(c1)C(C)(C)C1=C/C(=[N+](/C)Cc3ccc(S(=O)(=O)O)cc3S(=O)(=O)O)C=CC1=C2c1c(F)c(F)c(F)c(F)c1F [Compound 37]
23 |  | 667^b nm | 646^b nm |  |  | CN(C)c1ccc2c(c1)C(C)(C)c1cc3c(cc1=C2c1c(F)c(F)c(SCC(=O)O)c(F)c1F)CCC[N+]=3Cc1ccc(S(=O)(=O)O)cc1S(=O)(=O)O [Compound 38]
24 |  | 693^b nm | 673^b nm |  |  | CN(C)c1ccc2c(c1)C(C)(C)c1cc3c(cc1=C2c1c(F)c(F)c(SCC(=O)O)c(F)c1F)C(CS(=O)(=O)O)CC(C)(C)[N+]=3Cc1ccc(S(=O)(=O)O)cc1S(=O)(=O)O (stereo not shown) [Compound 39]
25 |  | 720^b nm | 699^b nm |  |  | CC1(C)c2cc3c(cc2C(c2c(F)c(F)c(SCC(=O)O)c(F)c2F)=c2cc4c(cc21)=[N+](Cc1ccc(S(=O)(=O)O)cc1S(=O)(=O)O)C(C)(C)CC4CS(=O)(=O)O)C(CS(=O)(=O)O)=CC(C)(C)N3Cc1ccc(S(=O)(=O)O)cc1S(=O)(=O)O (stereo not shown) [Compound 40]
26 |  | 659 nm | 640 nm | 642 | 663 | CN(CCCC(=O)O)C(=O)c1ccccc1C1=c2cc3c(cc2C(C)(C)c2c1cc1c4c2CCCN4CCC1)=[N+](Cc1ccc(S(=O)(=O)O)cc1S(=O)(=O)O)CCC3 [Compound 41]
27 |  | 701^b nm | 682^b nm |  |  | CC[N+]1=c2cc3c(cc2C(CS(=O)(=O)O)=CC1(C)C)=C(c1c(F)c(F)c(SCCS(=O)(=O)O)c(F)c1F)c1cc2c(cc1C3(C)C)N(Cc1ccc(S(=O)(=O)O)cc1S(=O)(=O)O)CCC2 [Compound 42]
